According to ChEMBL document CHEMBL5550106, “Recent advances in the exploration of oxazolidinone scaffolds from compound development to antibacterial agents and other bioactivities” (Eur J Med Chem, 2024):
In brackets after ≈: the same amount, converted by molar mass.

Tested on: Mycobacterium tuberculosis
Assay: Antitubercular activity against Multi-drug resistant Mycobacterium tuberculosis assessed as inhibition of bacterial growth incubated for 14 days by microplate alamar blue assay
Assay type: functional
Conditions: 336 h, time 14 day

## CN1CCN(c2ccc(N3C[C@H](CO)OC3=O)cc2F)C=N1 [DELPAZOLID]
  MIC90: 0.5 µg/mL (≈ 1.62 µM)
